Laboratory results taken from patent US20240270771A1, “Compound containing phosphate group, pharmaceutical composition containing same, preparation method therefor and use thereof” (SHANGHAI RAISING PHARMACEUTICAL CO., LTD., priority 2021, published 2024).

What was measured:
[1] = Acute toxicity test, gavage to mice; format: in vivo, Kunming strain mice; conditions: male mice; for Body weight before administration (mean ± standard deviation): baseline before gavage 2000 mg/kg once a day; for Body weight on Day 7 (mean ± standard deviation) / Body weight on Day 14 (mean ± standard deviation): gavage 2000 mg/kg once a day
Method: CMC-Na (sodium carboxymethylcellulose) was purchased from Shanghai Sinopharm Chemical Reagent Co., Ltd.
The test animals were Kunming strain mice, 18-20 g, provided by Beijing Keao Xieli Feed Co., Ltd.
• 1) Preparation of 0.7% CMC-Na: 0.7 g CMC-Na was added with distilled water to prepare a 0.7 g/100 mL solution. • 2) The compound to be tested was added to 0.7% CMC-Na to prepare a 100 mg/mL suspension. • 3) Each test group comprised 10 mice, all of which were male. Each mouse was orally administered with the test compound (2000 mg/kg) by gavage, once a day, for a cumulative period of 15 days. […] The body weights were recorded on the day of administration, days 7 and 14. 2.3. Test results

[2] = Pharmacokinetic study, absorption test (TM and TDP in whole blood); format: in vivo, SD rats; conditions: same drug dose, single gavage, rats
Method: (§1) The SD rats used in this test were purchased from Zhejiang Charles rive Laboratory Animal Co., Ltd. Both male and female rats of SPF grade weighting about 250 g were used.
(§2) Preparation of the test article: a proper amount of test article was weighed and ground as fine powder in a mortar. A certain amount of the vehicle was added to a proper container, and then the ground test article was added to the container under magnetic stirring. The mixture was stirred until the appearance is uniform.
The SD rats were divided into 3 groups (6 rats in each group, half male and half female). […] Blood was collected (about 200 µL/time) before drug administration (0 min) and 3 min, 8 min, 15 min, 30 min, 1 h, 2 h, 3 h, 5 h, 8 h, 12 h, 24 h and 48 h after drug administration. Blood was anticoagulated with EDTA and placed on ice after collection. […]
(§3) The concentrations of TM and TDP in the samples were determined by HPLC-FLD.
(§4) The non-compartment model of the DAS software was used to calculate the pharmacokinetic parameters of TM and TDP in blood of rats after administration. The concentration of TM in the brain tissue after the drug administration in rats was measured, and the mean value and standard deviation were calculated. The area under the drug-time curve AUC was calculated using the trapezoidal method.

[3] = Pharmacokinetic study, brain distribution test (TM in brain and whole blood); format: in vivo, SD rats; conditions: single gavage to rats
Method: as §1, §2
The male SD rats were divided into three groups (16 rats in each group) (4 animals were sacrificed at 4 time points). […] The animals were sacrificed at 5 min, 1 h, 3 h, and 9 h after the administration. The brain was taken out immediately after sacrifice, rinsed with ice-cold water and rinsed. 50 mg of the brain tissue was weighed, added to 0.45 mL of 100 mM dipotassium hydrogen phosphate buffer (pH=5.0) and homogenized. Blood samples were taken simultaneously and anticoagulated with EDTA. After collection, blood samples were placed on ice. 150 μL of whole blood was taken and 150 μL of 5.2% perchloric acid was added to determine TM. Another 4 animals were gavage administered with normal saline for the determination of endogenous TM concentration. All samples were frozen and stored in a −80° C. refrigerator.
as §3, §4

[4] = test system: scopolamine-induced acute memory dysfunction model; experiment: Jumping stand test, scopolamine-induced acute memory dysfunction model; format: in vivo, ICR mice; conditions: scopolamine 2 mg/kg i.p., compound 200 mg/kg gavage once a day 3 weeks; for Number of errors: model group 1.7 ± 0.5; for Latency period: model group 68.5 ± 80.0
Method: The mice employed in the present test were purchased from Xipuer-BIKAI Laboratory Animal Co., Ltd., and they were SPF grade ICR mice, 3-4 weeks old, weighing 16-18 g.
Scopolamine hydrobromide trihydrate was purchased from aladdin, Product No.: S107418; Purity: 98%.
Test article preparation: 100 mg of the compound to be tested was weighed and added to 10 mL of 0.7% CMC-Na to prepare a 10 mg/mL suspension for use.
The laboratory mice were randomly divided into groups (9 or 10 mice per group). The mice in each group were administrated at a dosage of 0.2 mL/10 g body weight by oral gavage once a day for three weeks.
The laboratory animals were administered by gavage for 3 consecutive weeks according to the above administration dosage/specification. Training was started on the last day of administration, and the test was conducted 24 hours later.
The laboratory animals were administered by gavage for 3 weeks, and scopolamine (mouse: 2 mg/kg) was injected intraperitoneally 0.5 hour after the last dose. The animals were trained with YLS-3 TB jumping stand detector and tested for memory acquisition function after 24 hours. The latency period (the time from the start of counting to the first time of jumping off the stand) and the number of errors (the number of electric shock) were recorded.
The YLS-3 TB jumping stand detector were divided into five compartments by transparent boards. The bottom of the compartment was covered with a copper grid and applied with a voltage of 50 V A rubber pad stand with a height of 3.5 cm and a diameter of 3.5 cm was placed in each compartment to serve as a safe area for mice to avoid electric shock. Training of laboratory mice before the formal test: the laboratory mice were placed in the small compartment with a stand to get familiar with the environment for 5 min (the five compartments were connected), and then electrified for stimulation (all the laboratory mice were on the grid at this time), at the voltage of 50 V and current of 1.00 mA. Mice have the habit of jumping from a high place. If they jump, they will be shocked to produce memory. The current was applied for 5 min, which served as the training process.
Testing: the animals were put on the stand in the jumping compartment one by one. The time interval for putting each animal was 5 s. After the first animal was put on the stand, the electricity was applied immediately. The electricity was applied for 6 min. At the end of applying electricity, data were printed, and the latency period (the time from the start of counting to the first time of jumping off the stand) and the number of errors (the number of electric shock during the testing period) were recorded. […]

Compound	Body weight before administration (mean ± standard deviation) [1] [g]	Body weight on Day 7 (mean ± standard deviation) [1] [g]	Body weight on Day 14 (mean ± standard deviation) [1] [g]	TM and TDP exposures compared with BTMP and Comparative compound 2 administration groups [2]	t1/2 of TDP compared with BTMP or Comparative compound 2 administration group [2]	AUC of TM in the brain, times of that of BTMP administration group [3] [times]	AUC of TM in the brain, times of that of the Comparative compound 2 administration group [3] [times]	AUC of TM in the brain ([3]; trapezoidal method, calculated after deducting the concentration at time zero) [ng·h/g]	Number of errors [4]	Latency period [4] [s]
C/C(=C(\CCOP(=O)(O)O)SC(=O)c1ccco1)N(C=O)Cc1cnc(C)nc1N [Compound 9, (Z)—S-(2-(N-((4-amino-2-methylpyrimidin-5-yl)methyl)formamido)-5-(phosphonooxy)pent-2-en-3-yl) furan-2-carbothioate]	32.1 ± 1.7	35.7 ± 1.4	36.3 ± 1.7	–	–	–	–	–	–	–
CCCC(CCC)C(=O)S/C(CCOP(=O)(O)O)=C(/C)N(C=O)Cc1cnc(C)nc1N [Compound 1, (Z)—S-(2-(N-((4-amino-2-methylpyrimidin-5-yl)methyl)formamido)-5-(phosphonooxy)pent-2-en-3-yl) 2-propylpentanethioate]	31.4 ± 1.1	35.5 ± 1.0	36.7 ± 1.2	higher	significantly higher	1.56	2.08	1156.6	0.8 ± 0.8	180.0 ± 105.9
CCC(CC)C(=O)S/C(CCOP(=O)(O)O)=C(/C)N(C=O)Cc1cnc(C)nc1N [Compound 2, (Z)—S-(2-(N-((4-amino-2-methylpyrimidin-5-yl)methyl)formamido)-5-(phosphonooxy)pent-2-en-3-yl) 2-ethylbutanethioate]	–	–	–	–	–	–	–	–	0.9 ± 0.7	173.2 ± 98.7
